Laboratory results from patent US10251395B2, “Substituted furano-/thienocycloalkylamino-2-pyrimidine derivatives and use thereof for controlling undesired plant growth” (Bayer CropScience Aktiengesellschaft, priority 2015, dated 2019).

Tests used:
Amaranthus retroflexus [1] = assay: Pre-emergence herbicidal effect; type: in vivo; settings: scored visually after 3 weeks
Procedure, shortened: (§1)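 Herbicidal activity (%) is a visual rating made 3 weeks after treatment by comparison with untreated controls, where 0% equals control plants and 100% means the plants died. Application went onto the soil covering sown seeds before emergence.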

Alopecurus myosuroides [2] = assay: Pre-emergence herbicidal effect; type: in vivo; settings: scored visually after 3 weeks
Procedure, shortened: as §1

Polygonum convolvulus [3] = assay: Pre-emergence herbicidal effect; type: in vivo; settings: scored visually after 3 weeks
Procedure, shortened: as §1

Matricaria inodora [4] = assay: Pre-emergence herbicidal effect; type: in vivo; settings: scored visually after 3 weeks
Procedure, shortened: as §1

Setaria viridis [5] = assay: Pre-emergence herbicidal effect; type: in vivo; settings: scored visually after 3 weeks
Procedure, shortened: as §1

Veronica persica [6] = assay: Pre-emergence herbicidal effect; type: in vivo; settings: scored visually after 3 weeks
Procedure, shortened: as §1

Cyperus esculentus = assay: Pre-emergence herbicidal effect; type: in vivo; settings: Dosage 320 g/ha, scored visually after 3 weeks
Procedure, shortened: as §1

Stellaria media [7] = assay: Pre-emergence herbicidal effect; type: in vivo; settings: scored visually after 3 weeks
Procedure, shortened: as §1

Viola tricolor [8] = assay: Pre-emergence herbicidal effect; type: in vivo; settings: scored visually after 3 weeks
Procedure, shortened: as §1

Lolium multiflorum [9] = assay: Pre-emergence herbicidal effect; type: in vivo; settings: Dosage 320 g/ha, scored visually after 3 weeks
Procedure, shortened: as §1

Echinochloa crus-galli [10] = assay: Pre-emergence herbicidal effect; type: in vivo; settings: scored visually after 3 weeks
Procedure, shortened: as §1

Amaranthus retroflexus [11] = assay: Post-emergence herbicidal effect; type: in vivo; settings: assessed visually after about 3 weeks vs untreated controls
Procedure, shortened: (§2)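 Action, expressed in percent from 0 (like controls) to 100 (plants died), is read by eye about 3 weeks after foliar application. Applications use formulated product in water at 600–800 L/ha on one-leaf-stage plants sown in sandy loam.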

Polygonum convolvulus [12] = assay: Post-emergence herbicidal effect; type: in vivo; settings: 320 g/ha, assessed visually after about 3 weeks vs untreated controls
Procedure, shortened: as §2

Matricaria inodora [13] = assay: Post-emergence herbicidal effect; type: in vivo; settings: assessed visually after about 3 weeks vs untreated controls
Procedure, shortened: as §2

Setaria viridis [14] = assay: Post-emergence herbicidal effect; type: in vivo; settings: assessed visually after about 3 weeks vs untreated controls
Procedure, shortened: as §2

Veronica persica [15] = assay: Post-emergence herbicidal effect; type: in vivo; settings: assessed visually after about 3 weeks vs untreated controls
Procedure, shortened: as §2

Abutilon theophrasti [16] = assay: Post-emergence herbicidal effect; type: in vivo; settings: assessed visually after about 3 weeks vs untreated controls
Procedure, shortened: as §2

Stellaria media [17] = assay: Post-emergence herbicidal effect; type: in vivo; settings: assessed visually after about 3 weeks vs untreated controls
Procedure, shortened: as §2

Viola tricolor [18] = assay: Post-emergence herbicidal effect; type: in vivo; settings: assessed visually after about 3 weeks vs untreated controls
Procedure, shortened: as §2

Echinochloa crus-galli [19] = assay: Post-emergence herbicidal effect; type: in vivo; settings: assessed visually after about 3 weeks vs untreated controls
Procedure, shortened: as §2

logP (HCOOH) = type: physicochemical; settings: HCOOH
Text: Table 2 (physicochemical characterization of selected synthesis examples)

Ipomoea purpurea [20] = assay: Pre-emergence herbicidal effect; type: in vivo; settings: Dosage 320 g/ha, scored visually after 3 weeks
Procedure, shortened: as §1

Abutilon theophrasti [21] = assay: Pre-emergence herbicidal effect; type: in vivo; settings: scored visually after 3 weeks
Procedure, shortened: as §1

Alopecurus myosuroides [22] = assay: Post-emergence herbicidal effect; type: in vivo; settings: 320 g/ha, assessed visually after about 3 weeks vs untreated controls
Procedure, shortened: as §2

Lolium multiflorum [23] = assay: Post-emergence herbicidal effect; type: in vivo; settings: 320 g/ha, assessed visually after about 3 weeks vs untreated controls
Procedure, shortened: as §2

Ipomoea purpurea [24] = assay: Post-emergence herbicidal effect; type: in vivo; settings: assessed visually after about 3 weeks vs untreated controls
Procedure, shortened: as §2

Compound | AMARE pre-emergence efficacy (herbicidal activity) (Amaranthus retroflexus [1]; Dosage 80 g/ha) [%] | AMARE pre-emergence efficacy (herbicidal activity) (Amaranthus retroflexus [1]; Dosage 320 g/ha) [%] | ALOMY pre-emergence efficacy (herbicidal activity) (Alopecurus myosuroides [2]; Dosage 320 g/ha) [%] | POLCO pre-emergence efficacy (herbicidal activity) (Polygonum convolvulus [3]; Dosage 320 g/ha) [%] | MATIN pre-emergence efficacy (herbicidal activity) (Matricaria inodora [4]; Dosage 80 g/ha) [%] | MATIN pre-emergence efficacy (herbicidal activity) (Matricaria inodora [4]; Dosage 320 g/ha) [%] | SETVI pre-emergence efficacy (herbicidal activity) (Setaria viridis [5]; Dosage 80 g/ha) [%] | SETVI pre-emergence efficacy (herbicidal activity) (Setaria viridis [5]; Dosage 320 g/ha) [%] | VERPE pre-emergence efficacy (herbicidal activity) (Veronica persica [6]; Dosage 80 g/ha) [%] | VERPE pre-emergence efficacy (herbicidal activity) (Veronica persica [6]; Dosage 320 g/ha) [%] | CYPES pre-emergence efficacy (herbicidal activity) (Cyperus esculentus) [%] | STEME pre-emergence efficacy (herbicidal activity) (Stellaria media [7]; Dosage 80 g/ha) [%] | STEME pre-emergence efficacy (herbicidal activity) (Stellaria media [7]; Dosage 320 g/ha) [%] | VIOTR pre-emergence efficacy (herbicidal activity) (Viola tricolor [8]; Dosage 80 g/ha) [%] | VIOTR pre-emergence efficacy (herbicidal activity) (Viola tricolor [8]; Dosage 320 g/ha) [%] | LOLMU pre-emergence efficacy (herbicidal activity) (Lolium multiflorum [9]) [%] | ECHCG pre-emergence efficacy (herbicidal activity) (Echinochloa crus-galli [10]; Dosage 320 g/ha) [%] | post-emergence efficacy AMARE (Amaranthus retroflexus [11]; 320 g/ha) [%] | post-emergence efficacy VERPE (Veronica persica [15]; 320 g/ha) [%] | post-emergence efficacy VIOTR (Viola tricolor [18]; 320 g/ha) [%] | other results
Cc1cc2c(s1)CCCC2Nc1nc(N)c([S+](C)[O-])c(C(F)F)n1 (racemic) [compound 264] | 100 | 100 | 60 | 100 | 90 | 100 | 80 | 90 | 100 | 100 | 100 | 100 | 100 | 100 | 100 | 60 | 100 | 90 | 90 | 90 | ALOMY pre-emergence efficacy (herbicidal activity) (Alopecurus myosuroides [2]; Dosage 80 g/ha): 60%; post-emergence efficacy AMARE (Amaranthus retroflexus [11]; 80 g/ha): 90%; post-emergence efficacy POLCO (Polygonum convolvulus [12]): 80%; post-emergence efficacy MATIN (Matricaria inodora [13]; 80 g/ha): 80%; post-emergence efficacy MATIN (Matricaria inodora [13]; 320 g/ha): 90%; post-emergence efficacy SETVI (Setaria viridis [14]; 320 g/ha): 80%; post-emergence efficacy VERPE (Veronica persica [15]; 80 g/ha): 90%; post-emergence efficacy ABUTH (Abutilon theophrasti [16]; 320 g/ha): 90%; post-emergence efficacy STEME (Stellaria media [17]; 80 g/ha): 100%; post-emergence efficacy STEME (Stellaria media [17]; 320 g/ha): 100%; post-emergence efficacy VIOTR (Viola tricolor [18]; 80 g/ha): 90%; post-emergence efficacy ECHCG (Echinochloa crus-galli [19]; 320 g/ha): 90%
O=S1(=O)CCCc2nc(N[C@@H]3CCCc4sccc43)ncc21 [compound 73] | 100 | 100 | 90 | 100 | 100 | 100 | 80 | 100 | 100 | 100 | 100 | 100 | 100 |  | 100 | 100 | 100 | 80 | 100 | 60 | ALOMY pre-emergence efficacy (herbicidal activity) (Alopecurus myosuroides [2]; Dosage 80 g/ha): 80%; POLCO pre-emergence efficacy (herbicidal activity) (Polygonum convolvulus [3]; Dosage 80 g/ha): 100%; ECHCG pre-emergence efficacy (herbicidal activity) (Echinochloa crus-galli [10]; Dosage 80 g/ha): 100%; logP (HCOOH) (logP (HCOOH)): oily; logP (HCOOH): 2.38;; post-emergence efficacy MATIN (Matricaria inodora [13]; 80 g/ha): 100%; post-emergence efficacy MATIN (Matricaria inodora [13]; 320 g/ha): 100%; post-emergence efficacy VERPE (Veronica persica [15]; 80 g/ha): 80%; post-emergence efficacy STEME (Stellaria media [17]; 80 g/ha): 90%; post-emergence efficacy STEME (Stellaria media [17]; 320 g/ha): 100%; post-emergence efficacy ECHCG (Echinochloa crus-galli [19]; 320 g/ha): 100%
C/C(=N/OCc1ccccc1)c1cnc(NC2CCCc3sc(C)cc32)nc1N (racemic) [compound 291] |  | 100 | 90 | 70 | 100 | 100 | 90 | 100 | 100 | 100 |  | 100 | 100 | 90 | 100 | 60 | 80 | 80 | 60 | 80 | ALOMY pre-emergence efficacy (herbicidal activity) (Alopecurus myosuroides [2]; Dosage 80 g/ha): 60%; PHBPU pre-emergence efficacy (herbicidal activity) (Ipomoea purpurea [20]): 100%; post-emergence efficacy MATIN (Matricaria inodora [13]; 320 g/ha): 80%; post-emergence efficacy SETVI (Setaria viridis [14]; 80 g/ha): 60%; post-emergence efficacy SETVI (Setaria viridis [14]; 320 g/ha): 80%; post-emergence efficacy ABUTH (Abutilon theophrasti [16]; 80 g/ha): 80%; post-emergence efficacy ABUTH (Abutilon theophrasti [16]; 320 g/ha): 90%; post-emergence efficacy VIOTR (Viola tricolor [18]; 80 g/ha): 80%
Cc1cc2c(s1)C(Nc1ncc(S(C)(=O)=O)c(N)n1)CCC2 (racemic) [compound 19] | 100 | 100 | 100 | 80 | 100 | 100 | 100 | 100 | 100 | 100 | 80 | 100 | 100 | 100 | 100 |  | 100 | 90 | 100 | 100 | ABUTH pre-emergence efficacy (herbicidal activity) (Abutilon theophrasti [21]; Dosage 80 g/ha): 80%; ABUTH pre-emergence efficacy (herbicidal activity) (Abutilon theophrasti [21]; Dosage 320 g/ha): 100%; ECHCG pre-emergence efficacy (herbicidal activity) (Echinochloa crus-galli [10]; Dosage 80 g/ha): 100%; post-emergence efficacy AMARE (Amaranthus retroflexus [11]; 80 g/ha): 80%; post-emergence efficacy ALOMY (Alopecurus myosuroides [22]): 90%; post-emergence efficacy SETVI (Setaria viridis [14]; 80 g/ha): 90%; post-emergence efficacy SETVI (Setaria viridis [14]; 320 g/ha): 100%; post-emergence efficacy VERPE (Veronica persica [15]; 80 g/ha): 90%; post-emergence efficacy ABUTH (Abutilon theophrasti [16]; 80 g/ha): 90%; post-emergence efficacy ABUTH (Abutilon theophrasti [16]; 320 g/ha): 90%; post-emergence efficacy STEME (Stellaria media [17]; 80 g/ha): 80%; post-emergence efficacy STEME (Stellaria media [17]; 320 g/ha): 100%; post-emergence efficacy VIOTR (Viola tricolor [18]; 80 g/ha): 90%; post-emergence efficacy LOLMU (Lolium multiflorum [23]): 80%; post-emergence efficacy ECHCG (Echinochloa crus-galli [19]; 80 g/ha): 100%; post-emergence efficacy ECHCG (Echinochloa crus-galli [19]; 320 g/ha): 100%
Cc1cc2c(s1)CCCC2Nc1ncc(S(C)(=O)=O)c(N)n1 (racemic) [compound 59] | 100 | 100 | 80 | 100 | 100 | 100 | 80 | 100 | 100 | 100 | 80 | 100 | 100 | 100 | 100 | 90 | 100 | 90 | 100 | 80 | POLCO pre-emergence efficacy (herbicidal activity) (Polygonum convolvulus [3]; Dosage 80 g/ha): 80%; ABUTH pre-emergence efficacy (herbicidal activity) (Abutilon theophrasti [21]; Dosage 80 g/ha): 80%; ABUTH pre-emergence efficacy (herbicidal activity) (Abutilon theophrasti [21]; Dosage 320 g/ha): 100%; ECHCG pre-emergence efficacy (herbicidal activity) (Echinochloa crus-galli [10]; Dosage 80 g/ha): 100%; post-emergence efficacy AMARE (Amaranthus retroflexus [11]; 80 g/ha): 60%; post-emergence efficacy SETVI (Setaria viridis [14]; 80 g/ha): 90%; post-emergence efficacy SETVI (Setaria viridis [14]; 320 g/ha): 90%; post-emergence efficacy VERPE (Veronica persica [15]; 80 g/ha): 90%; post-emergence efficacy ABUTH (Abutilon theophrasti [16]; 80 g/ha): 20%; post-emergence efficacy ABUTH (Abutilon theophrasti [16]; 320 g/ha): 20%; post-emergence efficacy VIOTR (Viola tricolor [18]; 80 g/ha): 80%; post-emergence efficacy PHBPU (Ipomoea purpurea [24]; 80 g/ha): 80%; post-emergence efficacy PHBPU (Ipomoea purpurea [24]; 320 g/ha): 80%; post-emergence efficacy ECHCG (Echinochloa crus-galli [19]; 80 g/ha): 20%; post-emergence efficacy ECHCG (Echinochloa crus-galli [19]; 320 g/ha): 100%
